Test results from BigSolDB 2.1.

O=C(O)c1cccc(O)c1O
solubility (mole fraction)
Conditions	278.15 K	283.15 K	288.15 K	293.15 K	298.15 K	303.15 K	308.15 K	313.15 K	318.15 K
in acetone	0.0969	0.0987	0.101	0.105	0.108	0.113	0.116	0.121	0.127
in acetonitrile	0.00923	0.0101	0.0108	0.0115	0.013	0.0147	0.0158	0.0174	0.0198
in ethanol	0.0838	0.0855	0.0884	0.0907	0.0944	0.0973	0.101	0.105	0.11
in ethyl acetate	0.0459	0.048	0.0513	0.0547	0.059	0.0613	0.066	0.0719	0.0761
in ethyl formate	0.0232	0.0245	0.0258	0.0277	0.0301	0.0321	0.0351	0.0374	0.0411
in isopentanol	0.0569	0.0605	0.064	0.067	0.0709	0.0744	0.0803	0.0859	0.0904
in isopropanol	0.0697	0.0727	0.0764	0.0824	0.0879	0.0902	0.0976	0.103	0.11
in isopropyl acetate	0.0426	0.045	0.0494	0.0532	0.0568	0.0602	0.0644	0.0696	0.0728
in methyl acetate	0.0466	0.0493	0.0529	0.0571	0.0594	0.0621	0.0665	0.0726	0.0764
in n-butanol	0.0653	0.0683	0.0706	0.0737	0.0766	0.0806	0.0853	0.0903	0.0952
in n-propanol	0.0664	0.07	0.0727	0.0761	0.0788	0.084	0.0873	0.0915	0.0977
in n-propyl acetate	0.0454	0.048	0.0504	0.0534	0.0564	0.0581	0.0615	0.0672	0.0721
